The subject of series [1] is Mycobacterium tuberculosis. The series is described as follows: Antimycobacterial activity against Mycobacterium tuberculosis H37Rv in 7H12 medium by microplate alamar blue assay. In kind it is functional. (In general: Resazurin is reduced to fluorescent resorufin, in cell work by metabolically active cells.)
Series [2] concerns Mycobacterium tuberculosis. The series is described as follows: Antimycobacterial activity against Mycobacterium tuberculosis H37Rv in GAS medium by microplate alamar blue assay. In kind it is functional.
In a further series the test system is Vero. Put plainly: Cytotoxicity against African green monkey Vero cells. In kind it is cell-based. The conditions noted are these: chlorocebus sabaeus.
Series [3] relates to Mycobacterium tuberculosis. Put plainly: Antimycobacterial activity against non-replicating Mycobacterium tuberculosis H37Rv by low oxygen recovery assay. In kind it is functional, organism-based.
The subject of series [4] is Mycobacterium tuberculosis. Put plainly: Antimycobacterial activity against Mycobacterium tuberculosis H37Rv. In kind it is functional.

The structures appear in SMILES notation. Values after ≈ are worked out from the molar mass of the structure shown. Active and inactive are the calls of the source. Bounds are passed on as bounds.

With `C[C@H]1COC2(CCN(S(=O)(=O)c3cc(Br)cc(C(F)(F)F)c3)CC2)O1`, in series [1], the MIC (in general, the smallest concentration in the dilution series that meets the test's criterion for growth inhibition) was more than 10 µM.

For the molecule `C[C@H]1COC2(CCN(S(=O)(=O)c3cc([N+](=O)[O-])cc(C(F)(F)F)c3)CC2)O1`, the minimum inhibitory concentration (MIC) in series [1] worked out at 6.99 µM (≈ 2.87 µg/mL); in series [2], 10.2 µM (≈ 4.19 µg/mL). In the series on Vero, the Activity entry was “Toxic”. The outcome in series [3] was Active.

In the case of `O=C(OCc1ccccc1)c1cc([N+](=O)[O-])cc(C(F)(F)F)c1`, the MIC in series [1] was more than 50 µM; in series [2], 2.03 µM (≈ 0.66 µg/mL).

Turning to `C[C@H]1COC2(CCC(C(=O)Nc3cc([N+](=O)[O-])cc([N+](=O)[O-])c3)CC2)O1` (stereo partly drawn), the MIC in series [1] was determined as 47.9 µM (≈ 17.5 µg/mL); in series [2], 22.6 µM (≈ 8.26 µg/mL).

Turning to `C[C@H]1COC2(CCN(S(=O)(=O)c3cc(-c4ccccn4)cc(C(F)(F)F)c3)CC2)O1`, the MIC in series [1] was more than 50 µM; in series [2] it was 49.3 µM (≈ 21.8 µg/mL).

In the case of `C[C@H]1COC2(CCN(c3nc(=O)c4cc(C(F)(F)F)cc([N+](=O)[O-])c4s3)CC2)O1` [BTZ-043], the MIC in series [1] is less than 0.02 µM; in series [2] it was less than 0.02 µM; in series [4], 1 ng/mL (≈ 2.32 nM).

With `C[C@H]1COC2(CCN(S(=O)(=O)c3cc(-c4ccccc4)cc(C(F)(F)F)c3)CC2)O1`, the MIC in series [1] is more than 64 µM; in series [2] it was 17.4 µM (≈ 7.68 µg/mL).

`C[C@H]1COC2(CCC(C(=O)Nc3cccc(C(F)(F)F)c3)CC2)O1` (stereo partly drawn): the minimum inhibitory concentration (MIC) in series [1] was more than 50 µM; in series [2], 17.9 µM (≈ 6.15 µg/mL).

In the case of `C[C@H]1COC2(CCN(S(=O)(=O)c3cc([N+](=O)[O-])cc([N+](=O)[O-])c3)CC2)O1`, the results for the minimum inhibitory concentration (MIC) in series [1] and in series [2] were 1.53 µM (≈ 0.593 µg/mL) and 2.05 µM (≈ 0.794 µg/mL), respectively. Besides, the Activity entry in the series on Vero is listed as “Non-toxic”. The result in series [3] was Active.

As for `O=C(OCc1ccccc1)c1cc([N+](=O)[O-])cc([N+](=O)[O-])c1`, the minimum inhibitory concentration (MIC) in series [1] is 13 µM (≈ 3.94 µg/mL); in series [2], 0.27 µM (≈ 0.0816 µg/mL).

As to `C[C@H]1COC2(CCC(C(=O)Nc3cc([N+](=O)[O-])cc(C(F)(F)F)c3)CC2)O1` (stereo partly drawn), the MIC in series [1] was 23 µM (≈ 8.93 µg/mL); in series [2] it was 18.4 µM (≈ 7.15 µg/mL).

Consider `C[C@H]1COC2(CCN(S(=O)(=O)c3cc(-c4cccc[n+]4[O-])cc(C(F)(F)F)c3)CC2)O1`, for which the MIC in series [1] and in series [2] was more than 64 µM each time.

For the origin of these results see ChEMBL document CHEMBL3286115, “Design and Syntheses of Anti-Tuberculosis Agents Inspired by BTZ043 Using a Scaffold Simplification Strategy” (ACS Med Chem Lett, 2014).
